The values below come from patent US20250213558A1, “T-TYPE CALCIUM CHANNEL MODULATORS COMPRISING A PIPERAZINE OR 1,4-DIAZEPANE CORE AND METHODS OF USE THEREOF” (Praxis Precision Medicines, Inc., priority 2022, published 2025).

Structures are written as SMILES. Read-outs that look alike come from different tables or passages of the source.

Assay [1] addresses T1, Human Cav3.1 calcium channel (Homo sapiens, UniProt O43497).
T1 construct: expressed in transfected cells; host or cells: HEK-293 natClytin/TASK1+Cav3.1 cell line
As to the kind of experiment: Human Cav3.1 calcium channel patch clamp assay (SyncroPatch 384PE; single point and IC50, voltage dependent block). Type of assay: cell-based. The note with it: voltage dependent block (VDB); HEK-293 natClytin/TASK1+Cav3.1 cell line; read-out: Cav3.1 IC50. The essentials:
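Automated whole-cell patch clamp at room temperature, cells held at −120 mV; 100 ms step to −20 mV (resting block), then 1600 ms at −65 mV and a second −20 mV step (voltage-dependent block), every 15 s. Peak currents averaged over last 3 sweeps; % inhibition relative to nickel-sensitive current.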

A further assay deals with absence seizures. The note with it: childhood absence epilepsy, cited from earlier work.
Where [2] appears, read: at 16 weeks, assessed by video-EEG recordings.

T1 sequence (O43497 whole entry): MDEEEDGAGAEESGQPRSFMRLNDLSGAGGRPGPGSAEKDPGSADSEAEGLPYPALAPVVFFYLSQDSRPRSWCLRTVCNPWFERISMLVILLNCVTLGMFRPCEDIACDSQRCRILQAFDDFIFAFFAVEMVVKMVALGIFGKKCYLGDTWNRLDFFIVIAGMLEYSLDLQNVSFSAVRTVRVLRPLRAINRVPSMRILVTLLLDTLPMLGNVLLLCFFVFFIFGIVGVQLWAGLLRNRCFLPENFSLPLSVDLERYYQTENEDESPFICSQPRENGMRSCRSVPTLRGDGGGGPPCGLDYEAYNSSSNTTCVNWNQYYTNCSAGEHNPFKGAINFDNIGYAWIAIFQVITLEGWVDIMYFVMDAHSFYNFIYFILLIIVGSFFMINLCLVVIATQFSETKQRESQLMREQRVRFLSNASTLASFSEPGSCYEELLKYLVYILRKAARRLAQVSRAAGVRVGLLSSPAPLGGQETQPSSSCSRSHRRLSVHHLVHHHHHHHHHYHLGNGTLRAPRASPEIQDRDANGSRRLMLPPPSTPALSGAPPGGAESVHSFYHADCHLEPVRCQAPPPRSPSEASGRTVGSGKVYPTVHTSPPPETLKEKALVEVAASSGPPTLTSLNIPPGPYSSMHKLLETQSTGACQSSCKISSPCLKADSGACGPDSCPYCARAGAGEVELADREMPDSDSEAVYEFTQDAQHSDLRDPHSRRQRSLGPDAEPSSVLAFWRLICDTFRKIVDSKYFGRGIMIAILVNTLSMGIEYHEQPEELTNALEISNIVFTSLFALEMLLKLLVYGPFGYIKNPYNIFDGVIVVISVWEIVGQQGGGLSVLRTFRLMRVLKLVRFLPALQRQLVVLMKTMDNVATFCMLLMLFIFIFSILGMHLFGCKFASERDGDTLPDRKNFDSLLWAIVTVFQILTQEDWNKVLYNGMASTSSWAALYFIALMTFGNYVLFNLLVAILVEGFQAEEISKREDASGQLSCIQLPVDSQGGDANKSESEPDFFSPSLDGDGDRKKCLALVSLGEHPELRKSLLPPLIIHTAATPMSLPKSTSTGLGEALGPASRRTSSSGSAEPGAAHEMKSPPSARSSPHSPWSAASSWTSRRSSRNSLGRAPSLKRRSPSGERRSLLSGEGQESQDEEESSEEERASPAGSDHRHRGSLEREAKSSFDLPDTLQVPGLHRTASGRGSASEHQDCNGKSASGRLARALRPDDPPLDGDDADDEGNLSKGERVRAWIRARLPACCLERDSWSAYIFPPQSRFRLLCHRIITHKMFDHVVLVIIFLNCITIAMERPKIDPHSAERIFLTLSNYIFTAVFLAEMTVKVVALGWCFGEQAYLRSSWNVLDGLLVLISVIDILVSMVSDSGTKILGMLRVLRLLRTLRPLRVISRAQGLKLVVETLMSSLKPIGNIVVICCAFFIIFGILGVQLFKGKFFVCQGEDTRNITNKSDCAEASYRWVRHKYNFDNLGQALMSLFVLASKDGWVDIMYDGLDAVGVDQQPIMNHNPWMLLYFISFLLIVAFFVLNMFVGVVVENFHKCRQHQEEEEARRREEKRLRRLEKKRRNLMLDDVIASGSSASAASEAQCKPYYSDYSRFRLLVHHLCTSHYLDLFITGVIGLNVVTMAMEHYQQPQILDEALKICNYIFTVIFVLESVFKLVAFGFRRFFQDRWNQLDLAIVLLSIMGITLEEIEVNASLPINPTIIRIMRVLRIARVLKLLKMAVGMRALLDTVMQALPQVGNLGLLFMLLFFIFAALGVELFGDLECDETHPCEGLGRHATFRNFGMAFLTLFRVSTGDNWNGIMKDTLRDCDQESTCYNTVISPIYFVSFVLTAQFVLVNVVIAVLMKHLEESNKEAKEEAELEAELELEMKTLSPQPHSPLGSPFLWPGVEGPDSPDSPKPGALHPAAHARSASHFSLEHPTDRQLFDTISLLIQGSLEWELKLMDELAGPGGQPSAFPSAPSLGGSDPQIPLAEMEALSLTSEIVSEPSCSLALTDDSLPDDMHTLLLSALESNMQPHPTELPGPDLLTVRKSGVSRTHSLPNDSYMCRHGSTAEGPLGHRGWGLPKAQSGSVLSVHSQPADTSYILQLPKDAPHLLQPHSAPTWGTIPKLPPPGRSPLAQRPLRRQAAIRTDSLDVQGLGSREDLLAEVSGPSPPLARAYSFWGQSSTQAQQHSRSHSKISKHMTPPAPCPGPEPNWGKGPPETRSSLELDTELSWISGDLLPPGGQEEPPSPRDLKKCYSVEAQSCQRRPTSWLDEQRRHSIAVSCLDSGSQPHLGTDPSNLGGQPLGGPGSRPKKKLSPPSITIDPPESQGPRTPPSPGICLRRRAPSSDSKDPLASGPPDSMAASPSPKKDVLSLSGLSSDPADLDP

Turning to `CC(C)(C)NC(=O)CN1C[C@H]2COC[C@@H](C1)[C@@H]2CC(=O)Nc1cc(F)cc(Cl)c1` [Compound 372], the IC50 in assay [1] was determined as 162 nM. On the same count and under the same terms, for `CC(C)(C)NC(=O)CN1C2CC(CC(=O)Nc3cc(F)cc(Cl)c3)CC1C2` (stereo not drawn) [Compound 373] the value was 5820 nM.

Regarding `Nc1nnc(-c2cccc(Cl)c2Cl)c(N)n1` [Lamotrigine], the figures for the “patients in whom the seizures were completely controlled” value in the assay with absence seizures (at 12 months) and in the assay with absence seizures (setting [2]) were 21% and 29%, respectively. Regarding `CCC1(C)CC(=O)NC1=O` (stereo not drawn) [ethosuximide], the “patients in whom the seizures were completely controlled” value with absence seizures (at 12 months) is 45%; in the assay on absence seizures (setting [2]) it was 53%.
